Key:
JNK1 = JNK1 (Homo sapiens, UniProt P45983); assay: JNK1 inhibition; format: biochemical; conditions: read-out: inhibition (IC50) with regard to JNK1
[1] = system: IL-2 release by (PMA+Ionomycin)-stimulated Jurkat cells; assay: IL-2 release assay (IL-2 ELISA); format: cell-based; conditions: Homo sapiens; PMA + Ionomycine stimulated Jurkat cells
Experimental: The Ability of the Compounds According to Formula I to Modulate the Inflammatory Response by Inhibiting the Release of IL-2 was Assessed Using the Following Protocol
JNK pathway activation triggers the production of inflammatory cytokines such as IL-2. JNK can be activated by external stimuli such as PMA and Ionomycine and IL-2 production can be measured via an IL-2 ELISA test. Comparative measurements with and without the compounds of the invention according to the following protocol measure the ability of the compounds to prevent to stress-mediated IL-2 release.
Jurkat cells, a human T cell leukemia cell line (American Type Culture Collection # TIB 152) were cultured in RPMI 1640 medium (Gibco, BRL) supplemented with 10% of […] fetal calf serum (FCS), Glutamine and Penstrep. The cell suspension in the medium is diluted to give 2.10^6 cells/mL. The cells were plated (2.10^5 cells/well) on a 96-well plate containing different concentrations of a compound according to formula I (final concentration of compounds, 10, 3, 1, 0.3, 0.1 μM). This mixture is incubated 30 minutes at 37° C. in a humidified CO2 atmosphere. Cells were then treated with 10 μl PMA (Phorbolmyristate-13 Acetate-12)+Ionomycine (0.1 μM and 1 μM final concentration) in all wells except negative control. In wells without compounds, 10 μl of RPMI 2% DMSO (=0.1% final) is added. Cells are incubated 24 hours at 37° C. and then the supernatant harvested (freeze at −20° C. if not used the same day) prior to performing IL-2 ELISA test on the supernatant.
IL-2 release into the medium by (PMA+Iononomycin)-stimulated Jurkat cells, in presence or absence of test compounds may be assayed by ELISA. Following the procedure described below.
Monoclonal anti-human IL-2 antibody (MAB602) (capture), biotinylated anti-human IL-2 antibody (BAF202) (detection) and recombinant human IL-2 (202-IL-010) (standard) from From R&D Systems are used. […]
• 1. […] Optical density is measured using a microtiter plate reader set to 450 nm with correction at 570 nm.

Sequence of JNK1 (P45983 whole entry, species assumed): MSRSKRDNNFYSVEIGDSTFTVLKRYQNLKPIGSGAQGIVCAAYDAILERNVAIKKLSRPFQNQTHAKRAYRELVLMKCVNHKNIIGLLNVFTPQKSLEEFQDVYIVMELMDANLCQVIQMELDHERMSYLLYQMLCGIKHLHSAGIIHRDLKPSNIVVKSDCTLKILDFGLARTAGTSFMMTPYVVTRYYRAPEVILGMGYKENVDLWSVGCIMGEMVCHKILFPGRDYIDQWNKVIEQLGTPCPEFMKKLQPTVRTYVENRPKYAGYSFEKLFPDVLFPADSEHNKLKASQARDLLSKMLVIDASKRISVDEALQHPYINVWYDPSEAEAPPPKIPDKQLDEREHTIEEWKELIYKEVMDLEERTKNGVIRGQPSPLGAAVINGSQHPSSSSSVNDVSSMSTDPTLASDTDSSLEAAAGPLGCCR

COc1cccc(C(=O)NCc2ccc(S(=O)(=O)N3CCC(NCc4ccc(C(F)(F)F)cc4)CC3)s2)c1 [Example 1, 3-Methoxy-N-{[5-({4-[(4-trifluoromethylbenzyl)amino]piperidin-1-yl}sulfonyl)thien-2-yl]methyl}benzamide]
IC50 (JNK1): 100 to 700 nM
IC50 [1]: < 800 nM
